Test results as given in ChEMBL document CHEMBL3885881, “DrugMatrix”.

Species: Rattus norvegicus
Test: DrugMatrix - Regimen: Daily Repeat
Format: toxicity, organism-based, Sprague-Dawley
Parameters: regimen Daily Repeat, gender Male, age 6-8 weeks
Conditions: in vivo, iv, vehicle 100 % SALINE; for ABSOLUTE BASOPHIL / ABSOLUTE EOSINOPHIL / ABSOLUTE LYMPHOCYTE / ABSOLUTE MONOCYTE / ABSOLUTE SEGMENTED NEUTROPHIL / BASOPHIL / EOSINOPHIL / ERYTHROCYTE COUNT / HEMATOCRIT / HEMOGLOBIN / LEUKOCYTE COUNT / LYMPHOCYTE / MEAN CORPUSCULAR HEMOGLOBIN / MEAN CORPUSCULAR HEMOGLOBIN CONCENTRATION / MEAN CORPUSCULAR VOLUME / MONOCYTE / NEUTROPHIL / NUCLEATED RED BLOOD CELLS / PLATELET COUNT: tissue Blood; for ALANINE AMINOTRANSFERASE / ALBUMIN / ALKALINE PHOSPHATASE / ASPARTATE AMINOTRANSFERASE / BLOOD UREA NITROGEN / CARBON DIOXIDE / CHLORIDE / CHOLESTEROL / CREATINE PHOSPHOKINASE / CREATININE / GLUCOSE / LACTATE DEHYDROGENASE / LIPASE / PHOSPHORUS / POTASSIUM / SODIUM / TOTAL BILIRUBIN / TOTAL PROTEIN / URIC ACID: tissue Plasma
[1] = 200 mg/kg, 120 h, dose level Low, time 5 day
[2] = 800 mg/kg, 72 h, dose level High, time 3 day
[3] = 800 mg/kg, 120 h, dose level High, time 5 day

Question: What does the source list for `CC1(C)S[C@@H]2[C@H](NC(=O)[C@H](NC(=O)N3CCNC3=O)c3ccccc3)C(=O)N2[C@H]1C(=O)O` [AZLOCILLIN]?
Answer: ABSOLUTE BASOPHIL [1]: 0 CELLS/uL; ABSOLUTE EOSINOPHIL [1]: 0 CELLS/uL; ABSOLUTE LYMPHOCYTE [1]: 10606.67 CELLS/uL; ABSOLUTE MONOCYTE [1]: 46.67 CELLS/uL; ABSOLUTE SEGMENTED NEUTROPHIL [1]: 980 CELLS/uL; BASOPHIL [1]: 0%; EOSINOPHIL [1]: 0%; ERYTHROCYTE COUNT [1]: 5.98 x10E6/uL; HEMATOCRIT [1]: 35.9%; HEMOGLOBIN [1]: 14.17 G/DL; LEUKOCYTE COUNT [1]: 11.63 x10E3/uL; LYMPHOCYTE [1]: 91.33%; MEAN CORPUSCULAR HEMOGLOBIN [1]: 23.7 pg; MEAN CORPUSCULAR HEMOGLOBIN CONCENTRATION [1]: 39.5 G/DL; MEAN CORPUSCULAR VOLUME [1]: 60.07 fL; MONOCYTE [1]: 0.33%; NEUTROPHIL [1]: 8.33%; NUCLEATED RED BLOOD CELLS [1]: 0.33 /100WBC; PLATELET COUNT [1]: 1262 x10E3/uL; ALANINE AMINOTRANSFERASE [1]: 76 u/L; ALBUMIN [1]: 4.17 G/DL; ALKALINE PHOSPHATASE [1]: 302.33 u/L; ASPARTATE AMINOTRANSFERASE [1]: 91.67 u/L; BLOOD UREA NITROGEN [1]: 17.67 mg/dL; CARBON DIOXIDE [1]: 25.67 mmol/L; CHLORIDE [1]: 101 MEQ/L; CHOLESTEROL [1]: 73 mg/dL; CREATINE PHOSPHOKINASE [1]: 333.33 u/L; CREATININE [1]: 0.19 mg/dL; GLUCOSE [1]: 172.67 mg/dL; LACTATE DEHYDROGENASE [1]: 301 u/L; LIPASE [1]: 9.33 u/L; PHOSPHORUS [1]: 11.1 mg/dL; POTASSIUM [1]: 5.74 MEQ/L; SODIUM [1]: 144.37 MEQ/L; TOTAL BILIRUBIN [1]: 0.13 mg/dL; TOTAL PROTEIN [1]: 6.33 G/DL; URIC ACID [1]: 1.6 mg/dL; ABSOLUTE BASOPHIL [2]: 0 CELLS/uL; ABSOLUTE EOSINOPHIL [2]: 64.67 CELLS/uL; ABSOLUTE LYMPHOCYTE [2]: 11014.33 CELLS/uL; ABSOLUTE MONOCYTE [2]: 68.67 CELLS/uL; ABSOLUTE SEGMENTED NEUTROPHIL [2]: 1119 CELLS/uL; BASOPHIL [2]: 0%; EOSINOPHIL [2]: 0.33%; ERYTHROCYTE COUNT [2]: 5.5 x10E6/uL; HEMATOCRIT [2]: 34.53%; HEMOGLOBIN [2]: 13.63 G/DL; LEUKOCYTE COUNT [2]: 12.27 x10E3/uL; LYMPHOCYTE [2]: 90.67%; MEAN CORPUSCULAR HEMOGLOBIN [2]: 24.87 pg; MEAN CORPUSCULAR HEMOGLOBIN CONCENTRATION [2]: 39.5 G/DL; MEAN CORPUSCULAR VOLUME [2]: 62.9 fL; MONOCYTE [2]: 0.67%; NEUTROPHIL [2]: 8.33%; NUCLEATED RED BLOOD CELLS [2]: 0 /100WBC; PLATELET COUNT [2]: 1200 x10E3/uL; ALANINE AMINOTRANSFERASE [2]: 47.33 u/L; ALBUMIN [2]: 4.13 G/DL; ALKALINE PHOSPHATASE [2]: 350 u/L; ASPARTATE AMINOTRANSFERASE [2]: 79.33 u/L; BLOOD UREA NITROGEN [2]: 15.67 mg/dL; CARBON DIOXIDE [2]: 32.67 mmol/L; CHLORIDE [2]: 98.33 MEQ/L; CHOLESTEROL [2]: 83 mg/dL; CREATINE PHOSPHOKINASE [2]: 313.33 u/L; CREATININE [2]: 0.15 mg/dL; GLUCOSE [2]: 135.67 mg/dL; LACTATE DEHYDROGENASE [2]: 118 u/L; LIPASE [2]: 9.67 u/L; PHOSPHORUS [2]: 10.5 mg/dL; POTASSIUM [2]: 6.4 MEQ/L; SODIUM [2]: 143.1 MEQ/L; TOTAL BILIRUBIN [2]: 0.23 mg/dL; TOTAL PROTEIN [2]: 5.9 G/DL; URIC ACID [2]: 1.33 mg/dL; ABSOLUTE BASOPHIL [3]: 0 CELLS/uL; ABSOLUTE EOSINOPHIL [3]: 0 CELLS/uL; ABSOLUTE LYMPHOCYTE [3]: 11750 CELLS/uL; ABSOLUTE MONOCYTE [3]: 375 CELLS/uL; ABSOLUTE SEGMENTED NEUTROPHIL [3]: 375 CELLS/uL; BASOPHIL [3]: 0%; EOSINOPHIL [3]: 0%; ERYTHROCYTE COUNT [3]: 6.36 x10E6/uL; HEMATOCRIT [3]: 36.8%; HEMOGLOBIN [3]: 14.2 G/DL; LEUKOCYTE COUNT [3]: 12.5 x10E3/uL; LYMPHOCYTE [3]: 94%; MEAN CORPUSCULAR HEMOGLOBIN [3]: 22.3 pg; MEAN CORPUSCULAR HEMOGLOBIN CONCENTRATION [3]: 38.6 G/DL; MEAN CORPUSCULAR VOLUME [3]: 57.9 fL; MONOCYTE [3]: 3%; NEUTROPHIL [3]: 3%; NUCLEATED RED BLOOD CELLS [3]: 0 /100WBC; PLATELET COUNT [3]: 1139 x10E3/uL; ALANINE AMINOTRANSFERASE [3]: 42 u/L; ALBUMIN [3]: 3.7 G/DL; ALKALINE PHOSPHATASE [3]: 225 u/L; ASPARTATE AMINOTRANSFERASE [3]: 68 u/L; BLOOD UREA NITROGEN [3]: 22 mg/dL; CARBON DIOXIDE [3]: 25 mmol/L; CHLORIDE [3]: 102 MEQ/L; CHOLESTEROL [3]: 82 mg/dL; CREATINE PHOSPHOKINASE [3]: 168 u/L; CREATININE [3]: 0.27 mg/dL; GLUCOSE [3]: 198 mg/dL; LACTATE DEHYDROGENASE [3]: 104 u/L; LIPASE [3]: 9 u/L; PHOSPHORUS [3]: 10.1 mg/dL; POTASSIUM [3]: 5.6 MEQ/L; SODIUM [3]: 144.4 MEQ/L; TOTAL BILIRUBIN [3]: 0.2 mg/dL; TOTAL PROTEIN [3]: 6.1 G/DL; URIC ACID [3]: 2.2 mg/dL
